In the supplement of paper PMC10307832 one finds relative viability data, which are given here for 8 cell lines.

Holding throughout (assay): relative viability (nuclei count vs DMSO), 5 days (fraction); higher = more cells survive
Compound in the assay “Dabrafenib + Bortezomib”: CC(C)(C)c1nc(-c2cccc(NS(=O)(=O)c3c(F)cccc3F)c2F)c(-c2ccnc(N)n2)s1 [Dabrafenib] + CC(C)C[C@H](NC(=O)[C@H](Cc1ccccc1)NC(=O)c1cnccn1)B(O)O [Bortezomib] (partner 0.002 µM)
The gist of the method: (§1)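 Lung cancer cell lines were seeded in 1536-well plates and dosed by pin tool the next day, with either a single drug or a fixed anchor-drug dose combined with five library-drug doses (not always all listed) spaced in √10 steps. Five days later, one step fixed the cells and stained their nuclei (final 0.05% Triton X-100, 1% formaldehyde, 1 ug/ml Hoechst), and nuclei were counted on 4× images. Relative viability is the nuclei count in treated wells divided by the count in vehicle wells, and each value is the median of duplicate plates.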

Compound in the assay “Dabrafenib + Crizotinib”: CC(C)(C)c1nc(-c2cccc(NS(=O)(=O)c3c(F)cccc3F)c2F)c(-c2ccnc(N)n2)s1 [Dabrafenib] + C[C@@H](Oc1cc(-c2cnn(C3CCNCC3)c2)cnc1N)c1c(Cl)ccc(F)c1Cl [Crizotinib] (partner 1 µM)
In short, it runs like this: as §1

Compound in the assay “VX-702 + Bortezomib”: NC(=O)c1ccc(N(C(N)=O)c2c(F)cccc2F)nc1-c1ccc(F)cc1F [VX-702] + CC(C)C[C@H](NC(=O)[C@H](Cc1ccccc1)NC(=O)c1cnccn1)B(O)O [Bortezomib] (partner 0.002 µM)
The gist of the method:
as §1

Compound in the assay “VX-702 + AZD7762”: NC(=O)c1ccc(N(C(N)=O)c2c(F)cccc2F)nc1-c1ccc(F)cc1F [VX-702] + NC(=O)Nc1cc(-c2cccc(F)c2)sc1C(=O)N[C@H]1CCCNC1 [AZD7762] (partner 0.2 µM)
In short, it runs like this:
as §1

For NCI-H647, the relative viability in the assay with Dabrafenib + Bortezomib (first compound 0.009487 µM) is 0.778; with Dabrafenib + Bortezomib (first compound 0.03 µM), 0.789; with Dabrafenib + Bortezomib (first compound 0.09487 µM), 1.19; with Dabrafenib + Bortezomib (first compound 0.3 µM) it was 1.03; with Dabrafenib + Crizotinib (first compound 0.009487 µM), 1.05; with Dabrafenib + Crizotinib (first compound 0.03 µM), 1.04. Moreover, the relative viability with Dabrafenib + Crizotinib (first compound 0.09487 µM) was 0.976; with Dabrafenib + Crizotinib (first compound 0.3 µM), 1.04; with VX-702 + Bortezomib (first compound 0.02 µM), 1.14; in the assay with VX-702 + Bortezomib (first compound 0.2 µM), 0.84; with VX-702 + Bortezomib (first compound 0.6325 µM), 1.25; with VX-702 + Bortezomib (first compound 2 µM) it was 1.41. Moreover, the relative viability with VX-702 + AZD7762 (first compound 0.02 µM) was 0.461; in the assay with VX-702 + AZD7762 (first compound 0.2 µM), 0.386; with VX-702 + AZD7762 (first compound 0.6325 µM) it was 0.494; with VX-702 + AZD7762 (first compound 2 µM), 0.567.
NCI-H650: the relative viability is 0.865 with Dabrafenib + Bortezomib (first compound 0.009487 µM); 0.645 in the assay with Dabrafenib + Bortezomib (first compound 0.03 µM); 0.494 in the assay with Dabrafenib + Bortezomib (first compound 0.09487 µM); 0.453 with Dabrafenib + Bortezomib (first compound 0.3 µM); 0.715 with Dabrafenib + Crizotinib (first compound 0.009487 µM); 0.657 with Dabrafenib + Crizotinib (first compound 0.03 µM). Besides, the relative viability in the assay with Dabrafenib + Crizotinib (first compound 0.09487 µM) was 0.515; with Dabrafenib + Crizotinib (first compound 0.3 µM), 0.551; with VX-702 + Bortezomib (first compound 0.02 µM), 0.802; in the assay with VX-702 + Bortezomib (first compound 0.6325 µM), 1.05; with VX-702 + Bortezomib (first compound 2 µM) it was 1.07; with VX-702 + AZD7762 (first compound 0.02 µM), 0.943. Further, the results for the relative viability with VX-702 + AZD7762 (first compound 0.2 µM), in the assay with VX-702 + AZD7762 (first compound 0.6325 µM) and in the assay with VX-702 + AZD7762 (first compound 2 µM) were 0.894, 0.936 and 1.16, respectively.
For the cell line NCI-H727, the relative viability with Dabrafenib + Bortezomib (first compound 0.009487 µM) was determined as 0.848; with Dabrafenib + Bortezomib (first compound 0.03 µM), 0.882; with Dabrafenib + Bortezomib (first compound 0.09487 µM), 0.795; with Dabrafenib + Bortezomib (first compound 0.3 µM) it was 0.873; with Dabrafenib + Crizotinib (first compound 0.009487 µM) it was 1.01; with Dabrafenib + Crizotinib (first compound 0.03 µM) it was 0.791. For the same cell line, the relative viability worked out at 0.909 in the assay with Dabrafenib + Crizotinib (first compound 0.09487 µM); 0.84 with Dabrafenib + Crizotinib (first compound 0.3 µM); 0.657 with VX-702 + Bortezomib (first compound 0.02 µM); 0.743 with VX-702 + Bortezomib (first compound 0.2 µM); 0.939 with VX-702 + Bortezomib (first compound 0.6325 µM); 0.976 in the assay with VX-702 + Bortezomib (first compound 2 µM). Besides, the relative viability in the assay with VX-702 + AZD7762 (first compound 0.02 µM) worked out at 0.436; with VX-702 + AZD7762 (first compound 0.2 µM), 0.526; with VX-702 + AZD7762 (first compound 0.6325 µM), 0.502; with VX-702 + AZD7762 (first compound 2 µM), 0.574.
With NCI-H838, the relative viability was 0.74 in the assay with Dabrafenib + Bortezomib (first compound 0.003 µM); 0.973 in the assay with Dabrafenib + Bortezomib (first compound 0.009487 µM); 0.417 in the assay with Dabrafenib + Bortezomib (first compound 0.03 µM); 0.715 with Dabrafenib + Bortezomib (first compound 0.09487 µM); 1.09 with Dabrafenib + Bortezomib (first compound 0.3 µM); 0.858 with Dabrafenib + Crizotinib (first compound 0.003 µM). The relative viability with Dabrafenib + Crizotinib (first compound 0.009487 µM) worked out at 0.905; in the assay with Dabrafenib + Crizotinib (first compound 0.03 µM) it was 0.759; in the assay with Dabrafenib + Crizotinib (first compound 0.09487 µM), 0.829; with Dabrafenib + Crizotinib (first compound 0.3 µM), 0.979; with VX-702 + Bortezomib (first compound 0.02 µM), 0.857; in the assay with VX-702 + Bortezomib (first compound 0.2 µM) it was 0.94. Moreover, the relative viability came to 0.796 in the assay with VX-702 + Bortezomib (first compound 0.6325 µM); 0.937 in the assay with VX-702 + Bortezomib (first compound 2 µM); 0.937 with VX-702 + AZD7762 (first compound 0.02 µM); 0.912 with VX-702 + AZD7762 (first compound 0.2 µM); 1.05 in the assay with VX-702 + AZD7762 (first compound 0.6325 µM); 0.903 with VX-702 + AZD7762 (first compound 2 µM).
As to NCI-H1355, the relative viability amounted to 1.22 in the assay with Dabrafenib + Bortezomib (first compound 0.009487 µM); 1.12 with Dabrafenib + Bortezomib (first compound 0.03 µM); 1.29 in the assay with Dabrafenib + Bortezomib (first compound 0.3 µM); 1.05 with Dabrafenib + Crizotinib (first compound 0.009487 µM); 0.927 in the assay with Dabrafenib + Crizotinib (first compound 0.03 µM); 1.03 in the assay with Dabrafenib + Crizotinib (first compound 0.3 µM). Besides, the relative viability with VX-702 + Bortezomib (first compound 0.02 µM) was determined as 1.26; with VX-702 + Bortezomib (first compound 0.2 µM), 1.22; with VX-702 + Bortezomib (first compound 0.6325 µM), 1.27; in the assay with VX-702 + Bortezomib (first compound 2 µM) it was 1.26; with VX-702 + AZD7762 (first compound 0.02 µM) it was 0.867; with VX-702 + AZD7762 (first compound 0.2 µM), 0.672. The relative viability with VX-702 + AZD7762 (first compound 0.6325 µM) was 0.83; in the assay with VX-702 + AZD7762 (first compound 2 µM), 0.813.
On to NCI-H1437, for which the relative viability with Dabrafenib + Bortezomib (first compound 0.003 µM) is 0.299; with Dabrafenib + Bortezomib (first compound 0.009487 µM), 0.529; in the assay with Dabrafenib + Bortezomib (first compound 0.03 µM), 0.518; with Dabrafenib + Bortezomib (first compound 0.09487 µM), 0.534; in the assay with Dabrafenib + Bortezomib (first compound 0.3 µM), 0.516; in the assay with Dabrafenib + Crizotinib (first compound 0.003 µM), 0.935. In addition, the relative viability in the assay with Dabrafenib + Crizotinib (first compound 0.009487 µM) came to 0.902; with Dabrafenib + Crizotinib (first compound 0.03 µM), 0.906; in the assay with Dabrafenib + Crizotinib (first compound 0.09487 µM) it was 0.896; with Dabrafenib + Crizotinib (first compound 0.3 µM), 0.978; with VX-702 + Bortezomib (first compound 0.02 µM), 0.592; with VX-702 + Bortezomib (first compound 0.2 µM), 0.631. Moreover, the relative viability was 0.587 with VX-702 + Bortezomib (first compound 0.6325 µM); 0.595 with VX-702 + Bortezomib (first compound 2 µM); 1.06 with VX-702 + AZD7762 (first compound 0.02 µM); 1.16 with VX-702 + AZD7762 (first compound 0.2 µM); 1.23 with VX-702 + AZD7762 (first compound 0.6325 µM); 1.16 in the assay with VX-702 + AZD7762 (first compound 2 µM).
Regarding NCI-H1651, the relative viability with Dabrafenib + Bortezomib (first compound 0.003 µM) is 0.857; with Dabrafenib + Bortezomib (first compound 0.009487 µM), 0.887; with Dabrafenib + Bortezomib (first compound 0.03 µM), 0.972; with Dabrafenib + Bortezomib (first compound 0.09487 µM) it was 0.946; in the assay with Dabrafenib + Bortezomib (first compound 0.3 µM), 0.862; with Dabrafenib + Crizotinib (first compound 0.003 µM), 0.85. In addition, the relative viability with Dabrafenib + Crizotinib (first compound 0.009487 µM) worked out at 0.875; with Dabrafenib + Crizotinib (first compound 0.03 µM) it was 0.859; with Dabrafenib + Crizotinib (first compound 0.09487 µM), 0.785; in the assay with Dabrafenib + Crizotinib (first compound 0.3 µM), 0.786; in the assay with VX-702 + Bortezomib (first compound 0.02 µM), 0.958; with VX-702 + Bortezomib (first compound 0.2 µM), 0.96. Moreover, the relative viability in the assay with VX-702 + Bortezomib (first compound 0.6325 µM) was 0.95; in the assay with VX-702 + Bortezomib (first compound 2 µM), 1.03; with VX-702 + AZD7762 (first compound 0.02 µM), 0.474; with VX-702 + AZD7762 (first compound 0.2 µM), 0.429; with VX-702 + AZD7762 (first compound 0.6325 µM), 0.468; with VX-702 + AZD7762 (first compound 2 µM) it was 0.455.
For NCI-H1666, the relative viability came to 0.806 with Dabrafenib + Bortezomib (first compound 0.003 µM); 0.957 in the assay with Dabrafenib + Bortezomib (first compound 0.03 µM); 0.859 with Dabrafenib + Bortezomib (first compound 0.09487 µM); 0.814 in the assay with Dabrafenib + Bortezomib (first compound 0.3 µM); 0.988 in the assay with Dabrafenib + Crizotinib (first compound 0.003 µM); 1.09 with Dabrafenib + Crizotinib (first compound 0.03 µM). Further, the relative viability in the assay with Dabrafenib + Crizotinib (first compound 0.09487 µM) came out at 0.87; with Dabrafenib + Crizotinib (first compound 0.3 µM), 1.17; with VX-702 + Bortezomib (first compound 0.02 µM) it was 0.906; with VX-702 + Bortezomib (first compound 0.2 µM), 0.672; with VX-702 + Bortezomib (first compound 0.6325 µM) it was 0.989; with VX-702 + Bortezomib (first compound 2 µM) it was 0.606. Besides, the relative viability came to 0.925 with VX-702 + AZD7762 (first compound 0.02 µM), 0.837 in the assay with VX-702 + AZD7762 (first compound 0.2 µM), 0.922 with VX-702 + AZD7762 (first compound 0.6325 µM) and 0.693 with VX-702 + AZD7762 (first compound 2 µM).
